Reference: patent US9050354B2, “Therapeutic antisense oligonucleotide compositions for the treatment of inflammatory bowel disease” (Atlantic Pharmaceuticals (Holdings) Limited, priority 2004, dated 2015)
Oligonucleotides are written 5' to 3', each unit as a sugar letter and its base; * is a phosphorothioate linkage, no mark a phosphodiester; rarer units and linkages stand in square brackets, end groups in braces. Plain capitals give the bases only. d = 2'-deoxy (DNA)

What was measured:
[1] = enema, 10 to 12 hours post-administration; about two thirds N-acetyl metabolite; cited from earlier work
[2] = test system: mild to moderate active left sided ulcerative colitis; experiment: Open label study CS-28: pharmacological activity of ISIS 2302 enema; assay type: in vivo, human; conditions: 240 mg enema nightly for six weeks
Source text: All patients entering the study had moderate to severe mucosal disease at baseline (modified Mayo score, endoscopic appearance component of DAI, of 2 or greater at baseline). […] This was substantially higher than expected.

[3] = test system: mild to moderate ulcerative colitis; conditions: 240 mg/day rectally for 28 days; placebo 50%; cited from earlier work
Crohn's disease = conditions: intravenous, cited from earlier work
[4] = test system: moderate to severe ulcerative colitis; experiment: Subset analysis of patients with moderate to severe disease; assay type: in vivo, human; conditions: moderate to severe subset (n=26)
Procedure: An analysis of a subset of the population (n=26) of the study with moderate to severe disease was performed. Moderate to severe disease was defined as patients having the following scores using the DAI criteria: baseline stool frequency ≧2, rectal bleeding ≧2, endoscopy ≧2, and investigator's assessment ≧1.

[5] = in vivo
Procedure: A population of 15 patients with mild to moderate active left sided ulcerative colitis (DIA 3-10) with mucosal friability were studied.
Patients were given 240 mg of ISIS 2302 enema nightly for six weeks. Endoscopic mucosal biopsy samples were taken at baseline and at the end of therapy. Intensive 24-hour plasma pharmacokinetic (PK) sampling was conducted on all patients after the first and last enema dose for quantitative drug analysis. End of treatment colonic biopsy samples were collected for local quantitative PK evaluation from the descending colon.
PK and clinical data from the first 12 patients were analyzed.

[6] = human, in vivo, iv
Procedure: This was a double-blind, placebo-controlled, randomized (3:1, drug: placebo) study. Four healthy male volunteers were enrolled in each of seven single dose (0.06, 0.12, 0.24, 0.5, 1.0, 1.5 and 2.0 mg/kg) and multiple dose groups (0.2, 0.5, 1.0 and 2.0 mg/kg every other day for four doses). Groups were studied in a rising-dose fashion, and multiple dosing commenced after the first five single groups had completed the trial. […] Subjects remained recumbent, with continuous ECG monitoring for four hours after the beginning of each infusion. Before and at intervals after each infusion, supine blood pressure and pulse, clotting screen including aPTT, thrombin time, prothrombin time, serum complement split products C3a and C5a, neutrophil count, urine microproteins, and standard laboratory safety screen (hematology, blood biochemistry and urinalysis) were measured.
Complement split products were measured by commercially available C3a and C5a assay kits (Amersham).
Drug analysis was performed by capillary gel electrophoresis (CGE) as described by Leeds et al. (Anal. Biochem., 235:36-43, 1996). A phosphorothioate standard oligonucleotide composed of 27 thymidine nucleotides (T27) was added to both plasma and urine as an internal standard. The linear range of concentrations of oligonucleotides detectable in plasma using this method was 10 nM to 20 μM (approximately 0.07 to 140 μg/ml).

[7] = test system: chronic, unremitting pouchitis; conditions: HPMC enema 240 mg nightly for 6 weeks, twelve patients (p=0.001); cited from earlier work
[8] = human, in vivo, sc
[9] = test system: mild to moderate active distal ulcerative colitis
Procedure: The safety and efficacy of four different dosing regimens of ISIS 2302 enema was assessed for the treatment of ulcerative colitis were analyzed in a placebo-controlled, double-blinded Phase 2 study.
Patients were equally randomized into one of five study arms.
240 mg ISIS 2302 nightly for six weeks.
240 mg ISIS 2302 for 10 consecutive nights followed by 240 mg ISIS 2302 every other night for remaining 32 nights.
240 mg of ISIS 2302 every other night for six weeks.
120 mg of ISIS 2302 for 10 consecutive nights followed by 120 mg of ISIS 2302 every other night for the remaining 32 nights.
Placebo enema nightly for six weeks.
All patients received either a placebo enema or ISIS 2302 enema nightly for six weeks. Patients in arms 2 and 4 received placebo enemas on alternate nights when ISIS 2302 was administered on alternate days.

Row | Compound | plasma levels [1] | patients with DAI significantly improved from baseline to week 6 [2] | patients with mucosal healing and resolution of friability (modified Mayo score of 0 or 1) ([2]; at completion of the study) | patients requiring additional surgical or medical intervention over baseline during six months [3] | efficacy in Phase II studies (Crohn's disease; some subsets of patients) | efficacy on clinical remission and disease activity index scores (Crohn's disease; two Phase III trials, moderate to severe Crohn's disease) | change in DAI vs baseline and placebo ([4]; every other night dosing, through week 6) | change in DAI vs baseline and placebo ([4]; nightly dosing, through week 18) | Maximum plasma concentrations (Cmax) ([5]; human, 240 mg) | Mean AUC ([5]; human, 240 mg) | systemically available share of the administered dose [5] | n-1, n-2 and n-3 metabolites as share of total oligonucleotide in plasma [6] | primary endpoint of reduction of PDAI at week 6 [7] | plasma bioavailability [8] | subjects remaining in remission at week 30 of those in remission after 6 weeks ([9]; 240 mg group, placebo 4 of 9 (p=0.12)) | median duration of response ([9]; 240 mg group, placebo <3 months) | response rate vs placebo ([9]; 240 mg nightly, weeks 18 and 30 (p=0.04 and 0.03)) | stool frequency and rectal bleeding (components of DAI) ([9]; ISIS 2302 enema treatment) | response vs placebo ([9]; the 3 lower dose groups)
1 | Nc1ccc(O)c(C(=O)O)c1 [mesalamine] | 2 µg/mL |  |  |  |  |  |  |  |  |  |  |  |  |  |  |  |  |  | 
2 | ISIS 2302: 20-base phosphorothioate oligodeoxynucleotide 5′-GCCCAAGCTGGCATCCGTCA-3′ hybridizing to the 3′-untranslated region of human ICAM-1 mRNA (antisense dG*dC*dC*dC*dA*dA*dG*dC*dT*dG*dG*dC*dA*dT*dC*dC*dG*dT*dC*dA) |  | 9 of 12 | Seven of 12 | None | suggested efficacy | ineffective | significant (p≦0.05) decrease in DAI | significant (p≦0.05) decrease in DAI | 2.2 to 38 ng/mL | 0.124 µg·h/mL | less than 1% | 20% | reached | about 50% | 10 of 13 | ≥ 6 months | significantly better response rate than placebo | durable reduction | failed to demonstrate statistical improvement over placebo
